Common to all, as to type: in vivo, random-bred albino rats
Assay [1] deals with skin of the auricle (rat). Kind of assay: Local radioprotective effect on skin of rat auricle upon β-irradiation (60 Gy). The settings on record: β-radiation; for Duration of response, dry desquamation / Duration of response, moist desquamation / Duration of response, severe erythema / Duration of response, weak erythema: Eeff 0.76 MeV, applied 20 minutes before irradiation, X ± m. As for the experimental part: The effect of β-radiation was studied on the skin of floors of the auricle by way of using a flexible applicator containing a source of a soft beta-radiation of ^204 T1. The maximum energy (E) in tissues is […]. The dose rate of the employed sources was 7.2 and 12 Gy/h. […] The extent of the skin radioprotective effect was assessed by a number of clinical dermatological tests by recording visual observations over the progress of radiation dermatitis. The tests were effected by the blank method at strictly predetermined hours of the day by a team of specialists. The form of dermatitis in each irradiated skin locus (moist or dry desquamation, intense and weak erythema) was recorded daily by means of special codes over the entire observation period. The number of the same codes for every irradiated skin locus (frequencies of features) were summed up and a group mean value was calculated. […] The thus-obtained values were statistically processed and evaluated by means of the Student criterion. Therefore, the severity of radiodermatitis was quantified by means of the following tests: (a) duration of periods of light and severe erythema; (b) duration of periods of moist and dry desquamation.

For the next assay, the system named is skin of paws (rat). Kind of assay: Radioprotective effect on skin of rat paws upon X-ray irradiation (20 and 30 Gy). The conditions noted are these: 20 Gy.
The test system of the next assay is skin (rat). Kind of assay: Comparative evaluation of radioprotective effect with known preparations, local X-ray irradiation 30 Gy. From the text: For a comparative evaluation the data obtained in a similar experiment with a number of known preparations (castamine, ionol, dimethylsulphoxide), as well as with eugenol (3-methoxy-4-hydroxyallylbenzene) and castor oil were used.
Ionol (4-methyl-2,6-ditretbutylphenol) is employed as control as an analog-antioxidant featuring a radioprotective activity.

The next assay deals with back skin (rat). The experiment in a line: Antiburning effect on thermal burn (III degree) of the back skin. As for the experimental part:
Since the leading role in the pathogenesis of thermal death of cells is played by processes of injury of cellular membranes, the preparation according to the present invention has been tested for feasibility of its use as an antiburning preparation. […] The contact plate of the electric heater had the temperature of 200° C., the exposure time--10 seconds. […] As judged by the clinico-histological assessment, the severity of the thus-produced injury corresponded to a III degree burn. The course of treatment of the animals was started directly after effecting an experimental burn and continued till a complete healing of the wound surface. […] The ointments were prepared on lanolin or vaseline base with different content of the active principle. […] Vaseline and lanolin were used as control.

Setting [2] is: Eeff 8 keV, groups 5 (dimethylsulphoxide) and 6 (5% emulsion on vaseline), X ± m.

On to `CCOC(=O)C1=C(C)NC(C)=C(C(=O)OCC)C1` [Compound of the invention, 2,6-dimethyl-3,5-diethoxycarbonyl-1,4-dihydropyridine], for which, in assay [1], the “Diminution of response, dry desquamation” value is recorded as 86 % of the control; the “Diminution of response, moist desquamation” value is given as 100 % of the control; the “Diminution of response, severe erythema” value is given as 86 % of the control; the “Duration of response, dry desquamation” value came out at 0.3 ± 0.2 days. In assay [1], the “Duration of response, moist desquamation” value was 0.0 ± 0.0 days; the “Duration of response, severe erythema” value was determined as 0.3 ± 0.3 days; the “Duration of response, weak erythema” value is given as 1.7 ± 0.5 days.

Take `C[S+](C)[O-]` [Dimethylsulphoxide, dimethylsulphoxide]: in the assay with skin of paws (rat), the “Diminution of response, dry desquamation” value is 50 % of the control. Moreover, in the assay on skin of paws (rat) (setting [2]), the “Duration of response, dry desquamation” value is 2.8 ± 0.6 days; the “Duration of response, moist desquamation” value came out at 0.1 ± 0.1 days; the “Duration of response, severe erythema” value is 0.4 ± 0.3 days; the “Duration of response, weak erythema” value is on record as 1.6 ± 0.3 days. In the assay with skin (rat), the “Reduction of duration of radiation response stages, moist desquamation” value (“Reduction of duration … moist desquamation” for short) came to 30.0% and the Total weighed evaluation is listed as 22.5%. Also, in assay [1], the “Diminution of response, moist desquamation” value is 100 % of the control; the “Duration of response, dry desquamation” value was determined as 1.0 ± 1.2 days; the “Duration of response, moist desquamation” value is reported as 0.0 ± 0.0 days; the “Duration of response, severe erythema” value amounted to 1.3 ± 1.7 days. Moreover, the “Duration of response, weak erythema” value in assay [1] came out at 1.7 ± 1.7 days.

Consider `C=CCc1ccc(O)c(OC)c1` [Eugenol, 3-methoxy-4-hydroxyallylbenzene], for which, in the assay with skin (rat), the “Reduction of duration … moist desquamation” value worked out at 36.0% and the Total weighed evaluation is given as 27.5%.

`Cc1cc(C(C)(C)C)c(O)c(C(C)(C)C)c1` [Ionol, 4-methyl-2,6-ditertiarybutylphenol]: in the assay with skin (rat), the “Reduction of duration of radiation response stages, erythema” value came to 28.0%; the “Reduction of duration … moist desquamation” value is on record as 43.0%; the Total weighed evaluation is listed as 37.85%.

Regarding `CC(C)(CO)C(O)C(=O)NCCCO` (stereo not shown) [Panthenol], the “Healing period, female” value in the assay with back skin (rat) (female rats, control I (vaseline) 36.8 ± 6.8, control 2 (lanolin) 36.5 ± 6.5) came out at 36.0 ± 7.0 days. For the same molecule, in the assay on back skin (rat) (female rats, relative to control I (vaseline)), the “Stimulant effect, female” value is reported as “+2.2%”. For the same molecule, in the assay with back skin (rat) (male rats, control I (vaseline) 32.8 ± 4.0, control 2 (lanolin) 33.1 ± 3.5), the “Healing period, male” value came out at 29.7 ± 4.3 days. Also, the “Stimulant effect, male” value with back skin (rat) (male rats, relative to control 2 (lanolin)) is on record as “+10,3%”.

Source of the values: patent US4769382A, “Preparation for preventing and treatment of skin radiation burn lesions” (priority 1986, dated 1988).
